Key:
[1] = test system: KBV200; assay: Cell cycle distribution and hypodiploid cells, propidium iodide flow cytometry; format: cell-based, human
Experimental: The test cells were also analyzed by flow cytometry after being subjected to propidium iodide staining.

[2] = test system: human leukemia MDR cell line K562/adr; assay: Reversal of drug resistance of K562/adr, MTT assay, 72 h; format: cell-based; details: K562/adr
Experimental: (§1) In this embodiment, the IC50 of anticancer drugs in the presence or absence of Schisandrin B toward MDR cells was determined.
(§2) MTT assays were carried out in triplicate against human leukemia MDR cell line K562/adr and human epidermoid carcinoma MDR cell line KBV200. MTT assays as described previously (X. Hu, et al., Chemotherapy 41:296-305 (1995)) were used to determine the cytotoxicity of each anticancer drug in the presence or absence of Schisandrin B or verapmil.
Cells were treated with specific anticancer drugs as set forth therein. “Ctrl” represents control cells treated with anticancer drugs in the absence of Schisandrin B or verapamil. “SchB” represents cells treated with anticancer drugs in the presence of Schisandrin B (10 μg/ml).

[3] = test system: KBV200; assay: Apoptosis induced by doxorubicin, Hoechst 33342/propidium iodide staining; format: cell-based, human; details: KBV200, A5 + S10: doxorubicin 5 μg/ml and Schisandrin B 10 μg/ml, 24 hours
Excerpt: (§3) Cells were collected and stained with fluorescent dyes Hoechst 33342 and propidium iodide. Hoechst 33342 stains the nuclei of cells with the color blue, and propidium iodide exclusively stains dead cells with the color of red. Accordingly, while Hoechst 33342 only stained the living cells blue, the dead cells were stained by both dyes with the colors of yellow, orange or red. The percentage of dead cells was counted under fluorescent microscope.

[4] = test system: KB; assay: as above; format: cell-based
Excerpt: as §3

[5] = test system: K562/vcr; assay: Reversal of drug resistance, MTT assay, 48 h; format: cell-based
Experimental: To illustrate a method for reversal of drug resistance by application of Schisandrin B, cell lines K562/adr, K562/vcr (X. […] H. […] Cells were cultured in RPMI-1640 medium containing 10% fetal calf serum. […] The logarithmic growing cells were seeded into a 96 well plate (20,000 cells/well). Specific anticancer drugs (set forth in Table 1) and Schisandrin B in combination were added into the wells containing the select cell lines. […] Cell viability was assessed by MTT assays as described in X.

[6] = test system: KBV200 cells; assay: DNA fragmentation, agarose electrophoresis; format: cell-based, human; details: FIG. 13
Excerpt: The DNA of above cells was also extracted and subjected to agarose electrophoresis.

[7] = test system: KBV200-implanted tumor; assay: In vivo reversal of drug resistance, KBV200-implanted tumor; set-up: species or system Balb/c nude mice
Experimental: Thirty nine Balb/c nu/nu female mice were inoculated subcutaneously with KBV200 cells (5×10^6 KBV200 cells/each mouse) on day 0. […] Mean body weights were recorded daily. All mice were observed once per day (or more) for mortality and signs of ill health (i.e., weight loss, change in appetite, or behavioral changes). Therapeutic comparisons were made between control and treatment groups by determining the tumor size. Tumor size was monitored approximately every other day by caliper measurements and calculated according to the formula [Tumor weight=(length×width^2)÷2]. The median survival times (MST) and the percent increase in life span (% ILS) were calculated as: % ILS=[(MSTtreatment/MSTcontrol)−1]×100.
“MST” represents median survival time. The survival rate (T/C %) was calculated by following equation: T/C(%)=[Average survival period in the test group/average survival period in the control group]×100. *P<0.05 compared to saline, vehicle, or Schisandrin B alone.

[8] = test system: human epidermoid carcinoma MDR cell line KBV200; assay: Reversal of drug resistance of KBV200, MTT assay, 72 h; format: cell-based
Experimental: as §1, §2
Cells were treated with specific anticancer drugs as set forth therein. […] “SchB” represents cells treated with anticancer drugs in the presence of Schisandrin B (10 μg/ml).

[9] = KBV200, A1: doxorubicin 1 μg/ml
[10] = KBV200, A5: doxorubicin 5 μg/ml
[11] = KBV200, doxorubicin 1 μg/ml and Schisandrin B 10 μg/ml
[12] = KBV200, doxorubicin 5 μg/ml and Schisandrin B 10 μg/ml

SMILES: COc1cccc2c1C(=O)c1c(O)c3c(c(O)c1C2=O)C[C@@](O)(C(=O)CO)C[C@@H]3O[C@H]1C[C@H](N)[C@H](O)[C@H](C)O1 [Doxorubicin, doxorubicin]
- Cell cycle distribution G0/G1 [1, 9]: 44.76%
- Cell cycle distribution G2/M [1, 9]: 10.14%
- Cell cycle distribution S [1, 9]: 45.09%
- hypodiploid % [1, 9]: 1.21%
- Cell cycle distribution G0/G1 [1, 10]: 48.03%
- Cell cycle distribution G2/M [1, 10]: 9.60%
- Cell cycle distribution S [1, 10]: 42.37%
- hypodiploid % [1, 10]: 7.51%
- Cell cycle distribution G0/G1 [1, 11]: 54.04%
- Cell cycle distribution G2/M [1, 11]: 5.66%
- Cell cycle distribution S [1, 11]: 40.30%
- hypodiploid % [1, 11]: 24.10%
- Cell cycle distribution G0/G1 [1, 12]: 58.94%
- Cell cycle distribution G2/M [1, 12]: 1.70%
- Cell cycle distribution S [1, 12]: 39.36%
- hypodiploid % [1, 12]: 70.31%
- IC50 ([2]; Homo sapiens, anticancer drug alone, 72 h, read-out: IC50 Control): 1.42 ± 0.246 µg/mL
- RF (Schisandrin B) ([2]; IC50 in the absence divided by IC50 in the presence of Schisandrin B (10 μg/ml)): 20.57
- RF (verapamil) ([2]; IC50 in the absence divided by IC50 in the presence of verapamil (6 μg/ml)): 10.76
- IC50 Schisandrin B ([2]; anticancer drug in the presence of Schisandrin B (10 μg/ml)): 0.0691 ± 0.0137 µg/mL
- IC50 verapamil ([2]; anticancer drug in the presence of verapamil (6 μg/ml)): 0.1324 ± 0.0086 µg/mL
- % apoptosis [3]: >90%
- % apoptosis ([4]; A1: doxorubicin 1 μg/ml): >90%
- % apoptosis ([4]; A5: doxorubicin 5 μg/ml): >90%
- IC50 ([5]; Homo sapiens, anticancer drug toward K562/vcr in the absence of Schisandrin B, 48 h, read-out: IC50 Control): 4.89 ± 0.21 µg/mL
- RF (Reversal Folds) ([5]; IC50 in the absence of Schisandrin B divided by IC50 in the presence of Schisandrin B (10 μg/ml)): 25.7
- IC50 Schisandrin B ([5]; anticancer drug toward K562/vcr in the presence of Schisandrin B (10 μg/ml), 48 h): 0.19 ± 0.01 µg/mL
- DNA fragmentation ([6]; KBV200, doxorubicin combined with Schisandrin B (10 μg/ml)): demonstrated DNA fragmentation
- DNA fragmentation ([6]; KBV200, doxorubicin in the absence of Schisandrin B): did not show the similar DNA fragmentation
- tumor sizes versus control groups ([7]; Balb/c nu/nu mice, KBV200 s.c., doxorubicin 5 mg/kg via tail vein, Schisandrin B via gastric intubation, days 11, 14, 18, 21, 25, FIG. 15): not significantly different
- MST ([7]; Balb/c nude mice bearing KBV200-implanted tumor, doxorubicin 5 mg/kg i.v., Schisandrin B 50 mg/kg gastric intubation): not significantly prolonged
- T/C ([7]; survival period in the test group / control group x 100, Balb/c nude mice bearing KBV200-implanted tumor): 111.1%
- IC50 ([8]; Homo sapiens, anticancer drug alone, KBV200, 72 h, read-out: IC50 Control): 0.327 ± 0.213 µg/mL
- RF (verapamil) ([8]; IC50 in the absence / IC50 in the presence of verapamil (6 μg/ml), KBV200): 10.11
- IC50 Schisandrin B ([8]; anticancer drug in the presence of Schisandrin B (10 μg/ml), KBV200): 0.0691 ± 0.0137 µg/mL
- IC50 verapamil ([8]; anticancer drug in the presence of verapamil (6 μg/ml), KBV200): 0.0324 ± 0.0086 µg/mL
